Several values for one entry are separate records, joined by “and”; a condition that tells them apart may be missing. Identical values can stand only once. Like-named read-outs stand apart in the source and are kept apart here. Numbered stars: 1 amine (or outer) side, 2 acyl side, 3 side chain; on linkers, the order of the positions; unused ones are H or OH. Peptide text beside a SMILES is read from it. CO = O=C([*:1])[*:2]
Assays:
[1] = system: C. ochracea; type: biochemical
Experimental: (§1) The enzyme activity was measured by the chromogenic properties of N-CBz-glycyl-glycyl-L-arginine-β-naphthylamide which upon hydrolysis gives a visible color. The aminopeptidase activities listed in the table reflect the nanomoles of β-naphthylamine liberated after 60 minutes under the conditions described below.
(§2) After mixing, the solution is incubated for 1 hour at 37° C. and then 0.4 ml of a solution of stabilized diazonium salt, Fast Garnet GBC (0.5 mg/ml) in a 1M acetic acid buffer (pH 4.2), containing 10% Tween 20 was added to the mixture. After standing for 15 minutes at room temperature, the color reaction can be read manually by comparison with standard solutions or the absorbancy can be determined using a spectrophotometer at 525 nm. The reaction mixture without enzyme solution is used as a control.

[2] = system: Capnocytophaga gingivalis; type: biochemical
Experimental: as §1, §2

[3] = system: Capnocytophaga sp.; type: biochemical
Experimental: as §1, §2

[4] = system: B. corporis; assay: Aminopeptidase activity on β-naphthylamide substrates; type: biochemical
Experimental: as §1, §2

[5] = system: B. denticola; assay: as above; type: biochemical
Experimental: as §1, §2

[6] = system: B. intermedius; assay: as above; type: biochemical
Experimental: as §1, §2

[7] = system: B. melaninogenicus; assay: as above; type: biochemical
Experimental: as §1, §2

[8] = system: C. sputigena; assay: as above; type: biochemical
Experimental: as §1, §2

[9] = system: "Anaerobic vibrio"; type: biochemical
Experimental: as §1, §2
(§3) The enzyme activity and the aminopeptidase activities were determined in the manner described above in regard to Table I.

[10] = system: A. seminis; type: biochemical
Experimental: as §1, §2, §3

[11] = system: A. viscosus; type: biochemical
Experimental: as §1, §2, §3

[12] = system: Actinomyces israeli; type: biochemical
Experimental: as §1, §2, §3

[13] = system: Campylobacter sputorum; type: biochemical
Experimental: as §1, §2, §3

[14] = system: Eikenella corrodens; type: biochemical
Experimental: as §1, §2, §3

[15] = system: Fusobacterium nucleatum; type: biochemical
Experimental: as §1, §2, §3

[16] = system: S. mutans; type: biochemical
Experimental: as §1, §2, §3

[17] = system: V. parvula; type: biochemical
Experimental: as §1, §2, §3

[18] = system: Veillonella sp.; type: biochemical
Experimental: as §1, §2, §3

[19] = system: A. equuli; assay: Aminopeptidase activity on β-naphthylamide substrates; type: biochemical
Experimental: as §1, §2, §3

[20] = system: A. suis; assay: as above; type: biochemical
Experimental: as §1, §2, §3

[21] = system: F. periodonticum; assay: as above; type: biochemical
Experimental: as §1, §2, §3

[22] = system: Haemophilus aphrophilus; assay: as above; type: biochemical
Experimental: as §1, §2, §3

[23] = system: L. fermentum; assay: as above; type: biochemical
Experimental: as §1, §2, §3

[24] = system: Lactobacillus casei; assay: as above; type: biochemical
Experimental: as §1, §2, §3

[25] = system: S. salivarius; assay: as above; type: biochemical
Experimental: as §1, §2, §3

[26] = system: Veillonella alcalesens; assay: as above; type: biochemical
Experimental: as §1, §2, §3

[27] = system: B. gingivalis N-CBz-Gly-Gly-Arg peptidase; assay: Effect of inhibitors and enhancers on B. gingivalis peptidase activity; type: biochemical, Bacteroides gingivalis; details: for Inhibition of B. gingivalis enzyme activity by metals: high concentrations
[28] = system: B. mel. ss. intermedius; type: biochemical
Experimental: as §1, §2

[29] = system: S. sanguis; type: biochemical
Experimental: as §1, §2, §3

[30] = system: B. levii; type: biochemical
Experimental: as §1, §2

[31] = system: Bacteroides gingivalis; type: biochemical
Experimental: as §1, §2

[32] = strain ATCC 33547, β-naphthylamine liberated after 60 minutes, 37° C.
[33] = strain ATCC 33185, β-naphthylamine liberated after 60 minutes, 37° C.
[34] = strain ATCC 25611, β-naphthylamine liberated after 60 minutes, 37° C.
[35] = strain ATCC 25845, β-naphthylamine liberated after 60 minutes, 37° C.
[36] = strain ATCC 33123, β-naphthylamine liberated after 60 minutes, 37° C.
[37] = strain D31A-24, β-naphthylamine liberated after 60 minutes, 37° C.
[38] = strain ATCC 19392, β-naphthylamine liberated after 60 minutes, 37° C.
[39] = strain ATCC 15557, β-naphthylamine liberated after 60 minutes, 37° C.
[40] = strain EK1-15, β-naphthylamine liberated after 60 minutes, 37° C.
[41] = strain ATCC 13252, β-naphthylamine liberated after 60 minutes, 37° C.
[42] = strain ATCC 19415, β-naphthylamine liberated after 60 minutes, 37° C.
[43] = strain NCTC 5908, β-naphthylamine liberated after 60 minutes, 37° C.
[44] = strain ATCC 11581, β-naphthylamine liberated after 60 minutes, 37° C.
[45] = strain ATCC 7469, β-naphthylamine liberated after 60 minutes, 37° C.
[46] = strain ATCC 11578, β-naphthylamine liberated after 60 minutes, 37° C.
[47] = strain ATCC 11582, β-naphthylamine liberated after 60 minutes, 37° C.
[48] = strain ATCC 9759, β-naphthylamine liberated after 60 minutes, 37° C.
[49] = strain ATCC 25975, β-naphthylamine liberated after 60 minutes, 37° C.
[50] = strain ATCC 11748, β-naphthylamine liberated after 60 minutes, 37° C.

N=C(N)NCCC[C@H](NC(=O)[C@@H](N)CCCNC(=N)N)C(=O)O [Arg-Arg, Arginyl-arginine] (H-Arg-Arg-OH)
Aminopeptidase activity [1]: 71 | Aminopeptidase activity [2]: 65 | Aminopeptidase activity [3]: 0 | Aminopeptidase activity [4, 32]: 4 nmol | Aminopeptidase activity [5, 33]: 16 nmol | Aminopeptidase activity [6, 34]: 15 nmol | Aminopeptidase activity [7, 35]: 24 nmol | Aminopeptidase activity [8, 36]: 18 nmol | Aminopeptidase activity [9]: 0 | Aminopeptidase activity [10]: 0 | Aminopeptidase activity [11]: 0 | Aminopeptidase activity [12]: 0 | Aminopeptidase activity [13]: 1 | Aminopeptidase activity [14]: 0 | Aminopeptidase activity [15]: 1 | Aminopeptidase activity [15, 37]: 2 nmol | Aminopeptidase activity [16]: 1 | Aminopeptidase activity [17]: 0 | Aminopeptidase activity [18]: 0 | Aminopeptidase activity [19, 38]: 0 nmol | Aminopeptidase activity [20, 39]: 0 nmol | Aminopeptidase activity [21, 40]: 1 nmol | Aminopeptidase activity [22, 41]: 1 nmol | Aminopeptidase activity [22, 42]: 1 nmol | Aminopeptidase activity [22, 43]: 0 nmol | Aminopeptidase activity [23, 44]: 0 nmol | Aminopeptidase activity [24, 45]: 1 nmol | Aminopeptidase activity [24, 46]: 1 nmol | Aminopeptidase activity [24, 47]: 0 nmol | Aminopeptidase activity [25, 48]: 24 nmol | Aminopeptidase activity [25, 49]: 15 nmol | Aminopeptidase activity [26, 50]: 0 nmol

C[S+](C)[O-] [DMSO, dimethyl-sulfoxide]
Inhibition of B. gingivalis N-CBz-glycyl-glycyl-arginylpeptidase enzyme activity [27]: inhibited

N=C(N)NCCC[C@H](NC(=O)CN)C(=O)O [Gly-Arg, Glycyl-arginine] (H-Gly-Arg-OH)
Aminopeptidase activity [28]: 13 and 9 | Aminopeptidase activity [1]: 11 | Aminopeptidase activity [2]: 6 | Aminopeptidase activity [3]: 20 | Aminopeptidase activity [4, 32]: 0 nmol | Aminopeptidase activity [5, 33]: 4 nmol | Aminopeptidase activity [6, 34]: 22 nmol | Aminopeptidase activity [7, 35]: 4 nmol | Aminopeptidase activity [8, 36]: 8 nmol | Aminopeptidase activity [9]: 0 | Aminopeptidase activity [10]: 0 | Aminopeptidase activity [12]: 0 | Aminopeptidase activity [13]: 0 | Aminopeptidase activity [14]: 2 | Aminopeptidase activity [15]: 0 | Aminopeptidase activity [15, 37]: 1 nmol | Aminopeptidase activity [16]: 0 | Aminopeptidase activity [29]: 3 | Aminopeptidase activity [17]: 0 | Aminopeptidase activity [18]: 0 | Aminopeptidase activity [19, 38]: 0 nmol | Aminopeptidase activity [20, 39]: 0 nmol | Aminopeptidase activity [21, 40]: 0 nmol | Aminopeptidase activity [22, 41]: 0 nmol | Aminopeptidase activity [22, 42]: 0 nmol | Aminopeptidase activity [22, 43]: 0 nmol | Aminopeptidase activity [23, 44]: 0 nmol | Aminopeptidase activity [24, 45]: 0 nmol | Aminopeptidase activity [24, 46]: 0 nmol | Aminopeptidase activity [24, 47]: 1 nmol | Aminopeptidase activity [25, 48]: 0 nmol | Aminopeptidase activity [25, 49]: 0 nmol | Aminopeptidase activity [26, 50]: 0 nmol

NCC(=O)N1CCC[C@H]1C(=O)O [Gly-Pro, Glycyl-proline] (H-Gly-Pro-OH)
Aminopeptidase activity [30]: 22 and 17 | Aminopeptidase activity [28]: 15 and 22 and 27 | Aminopeptidase activity [1]: 11 | Aminopeptidase activity [2]: 19 | Aminopeptidase activity [3]: 2 | Aminopeptidase activity [4]: 54 | Aminopeptidase activity [5]: 17 | Aminopeptidase activity [6]: 10 | Aminopeptidase activity [7]: 26 | Aminopeptidase activity [8]: 16 | Aminopeptidase activity [9]: 0 | Aminopeptidase activity [10]: 0 | Aminopeptidase activity [11]: 0 | Aminopeptidase activity [12]: 0 | Aminopeptidase activity [13]: 1 | Aminopeptidase activity [14]: 0 | Aminopeptidase activity [15]: 0 | Aminopeptidase activity [15, 37]: 0 nmol | Aminopeptidase activity [16]: 22 | Aminopeptidase activity [29]: 75 and 109 | Aminopeptidase activity [18]: 0 | Aminopeptidase activity [19]: 0 | Aminopeptidase activity [20]: 0 | Aminopeptidase activity [21]: 1 | Aminopeptidase activity [23]: 5 | Aminopeptidase activity [25]: 105 and 90 | Aminopeptidase activity [26]: 0

C[C@H](NC(=O)[C@@H](N)CCCCN)C(=O)O [Lys-Ala, Lysyl-alanine] (H-Lys-Ala-OH)
Aminopeptidase activity [30]: 45 and 48 | Aminopeptidase activity [31]: 78 and 77 and 50 and 63 and 46 and 43 | Aminopeptidase activity [1]: 50 | Aminopeptidase activity [2]: 54 | Aminopeptidase activity [3]: 14 | Aminopeptidase activity [4]: 68 | Aminopeptidase activity [5]: 89 | Aminopeptidase activity [6]: 50 | Aminopeptidase activity [7]: 78 | Aminopeptidase activity [8]: 36 | Aminopeptidase activity [9]: 0 | Aminopeptidase activity [10]: 0 | Aminopeptidase activity [11]: 0 | Aminopeptidase activity [12]: 0 | Aminopeptidase activity [13]: 0 | Aminopeptidase activity [14]: 0 | Aminopeptidase activity [15, 37]: 0 nmol | Aminopeptidase activity [16]: 2 | Aminopeptidase activity [17]: 0 | Aminopeptidase activity [18]: 0 | Aminopeptidase activity [19]: 0 | Aminopeptidase activity [20]: 0 | Aminopeptidase activity [21]: 0 | Aminopeptidase activity [22]: 0 | Aminopeptidase activity [23]: 2 | Aminopeptidase activity [24]: 0 | Aminopeptidase activity [26]: 0

CC(C)[C@H](NC(=O)[C@H](CCCNC(=N)N)NC(=O)N[C@@H](Cc1ccccc1)C(=O)O)C(=O)N[C@H](C=O)CCCNC(=N)N [antipain] ({Phe-CO}-Arg-Val-Arg-aldehyde)
Inhibition of B. gingivalis N-CBz-glycyl-glycyl-arginylpeptidase enzyme activity [27]: inhibited

[Cd] [cadmium]
Sensitivity of B. gingivalis enzyme activity to heavy metal ions [27]: sensitive | Inhibition of B. gingivalis enzyme activity by metals [27]: inhibited

[Co] [cobalt]
Inhibition of B. gingivalis enzyme activity by metals [27]: inhibited

[Cu] [copper]
Sensitivity of B. gingivalis enzyme activity to heavy metal ions [27]: sensitive | Inhibition of B. gingivalis enzyme activity by metals [27]: inhibited

CC(=O)N[C@@H](CC(C)C)C(=O)N[C@@H](CC(C)C)C(=O)N[C@H](C=O)CCCNC(=N)N [leupeptin]
Inhibition of B. gingivalis N-CBz-glycyl-glycyl-arginylpeptidase enzyme activity [27]: inhibited

O=C(O)c1cc[c]([Hg][Cl])cc1 [p-chloromercuribenzoic acid]
Inhibition of B. gingivalis N-CBz-glycyl-glycyl-arginylpeptidase enzyme activity [27]: inhibited

O=S(=O)(F)Cc1ccccc1 [phenylmethylsulfonylfluoride]
Inhibition of B. gingivalis N-CBz-glycyl-glycyl-arginylpeptidase enzyme activity [27]: inhibited

[Zn] [zinc]
Inhibition of B. gingivalis enzyme activity by metals [27]: inhibited

mercury
Sensitivity of B. gingivalis enzyme activity to heavy metal ions [27]: sensitive | Inhibition of B. gingivalis enzyme activity by metals [27]: inhibited

— patent US4994376A, “Detection of bacteroides gingivalis” (priority 1987, dated 1991)
